# Assay results from US10457655B2, “Compounds and compositions for inhibition of FASN” (FORMA Therapeutics, Inc., priority 2013, dated 2019).
# How the values were obtained:
# FASN enzyme = FASN enzyme (Homo sapiens, UniProt P49327); assay: Enzymatic Assay for FASN Inhibitors; format: biochemical
# Summary of the method: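 40 nM FASN preincubated with compound 60 min at 25° C in HEPES pH 7.3 buffer with 0.04% Triton X-100. Then 20 μM acetyl-CoA, 60 μM malonyl-CoA and 100 μM NADPH added for 90 min, quenched with CPM thiol probe; fluorescence 360/530 nm, IC50 by four-parameter fit.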
# PC3 cells = assay: Cell Proliferation Assays for FASN Inhibitors (PC3 cells, MTT); format: cell-based; details: Homo sapiens, PC-3, 96 h, read-out: IC50 (uM) < 0.5, 10% lipid reduced serum, 4 days, Table 3-1
# Procedure: The effects of the FASN inhibitors on cultured cancer cell proliferation were studies with cell proliferation assays. PC3 cells were maintained at standard culture media (F12K media supplemented with 10% fetal bovine serum, 1×MEM nonessential amino acid and 1× penicillin/streptomycin). 2000-3000 cells/100 μL/well was seeded in a 96-well clear culture plate. The cells were incubated overnight in 5% CO2 at 37° C. for attachment. Cell media were removed and replaced with F12K media containing 10% lipid reduced serum and compound. The final DMSO concentration is 0.1%. The cells were maintained in 5% CO2 at 37° C. for 4 days. The viability of cells was determined by MTT assays. The IC50 of a given compound was calculated by fitting the dose response curve with a four parameter logistic equation.
# Chain of FASN enzyme (P49327 whole entry): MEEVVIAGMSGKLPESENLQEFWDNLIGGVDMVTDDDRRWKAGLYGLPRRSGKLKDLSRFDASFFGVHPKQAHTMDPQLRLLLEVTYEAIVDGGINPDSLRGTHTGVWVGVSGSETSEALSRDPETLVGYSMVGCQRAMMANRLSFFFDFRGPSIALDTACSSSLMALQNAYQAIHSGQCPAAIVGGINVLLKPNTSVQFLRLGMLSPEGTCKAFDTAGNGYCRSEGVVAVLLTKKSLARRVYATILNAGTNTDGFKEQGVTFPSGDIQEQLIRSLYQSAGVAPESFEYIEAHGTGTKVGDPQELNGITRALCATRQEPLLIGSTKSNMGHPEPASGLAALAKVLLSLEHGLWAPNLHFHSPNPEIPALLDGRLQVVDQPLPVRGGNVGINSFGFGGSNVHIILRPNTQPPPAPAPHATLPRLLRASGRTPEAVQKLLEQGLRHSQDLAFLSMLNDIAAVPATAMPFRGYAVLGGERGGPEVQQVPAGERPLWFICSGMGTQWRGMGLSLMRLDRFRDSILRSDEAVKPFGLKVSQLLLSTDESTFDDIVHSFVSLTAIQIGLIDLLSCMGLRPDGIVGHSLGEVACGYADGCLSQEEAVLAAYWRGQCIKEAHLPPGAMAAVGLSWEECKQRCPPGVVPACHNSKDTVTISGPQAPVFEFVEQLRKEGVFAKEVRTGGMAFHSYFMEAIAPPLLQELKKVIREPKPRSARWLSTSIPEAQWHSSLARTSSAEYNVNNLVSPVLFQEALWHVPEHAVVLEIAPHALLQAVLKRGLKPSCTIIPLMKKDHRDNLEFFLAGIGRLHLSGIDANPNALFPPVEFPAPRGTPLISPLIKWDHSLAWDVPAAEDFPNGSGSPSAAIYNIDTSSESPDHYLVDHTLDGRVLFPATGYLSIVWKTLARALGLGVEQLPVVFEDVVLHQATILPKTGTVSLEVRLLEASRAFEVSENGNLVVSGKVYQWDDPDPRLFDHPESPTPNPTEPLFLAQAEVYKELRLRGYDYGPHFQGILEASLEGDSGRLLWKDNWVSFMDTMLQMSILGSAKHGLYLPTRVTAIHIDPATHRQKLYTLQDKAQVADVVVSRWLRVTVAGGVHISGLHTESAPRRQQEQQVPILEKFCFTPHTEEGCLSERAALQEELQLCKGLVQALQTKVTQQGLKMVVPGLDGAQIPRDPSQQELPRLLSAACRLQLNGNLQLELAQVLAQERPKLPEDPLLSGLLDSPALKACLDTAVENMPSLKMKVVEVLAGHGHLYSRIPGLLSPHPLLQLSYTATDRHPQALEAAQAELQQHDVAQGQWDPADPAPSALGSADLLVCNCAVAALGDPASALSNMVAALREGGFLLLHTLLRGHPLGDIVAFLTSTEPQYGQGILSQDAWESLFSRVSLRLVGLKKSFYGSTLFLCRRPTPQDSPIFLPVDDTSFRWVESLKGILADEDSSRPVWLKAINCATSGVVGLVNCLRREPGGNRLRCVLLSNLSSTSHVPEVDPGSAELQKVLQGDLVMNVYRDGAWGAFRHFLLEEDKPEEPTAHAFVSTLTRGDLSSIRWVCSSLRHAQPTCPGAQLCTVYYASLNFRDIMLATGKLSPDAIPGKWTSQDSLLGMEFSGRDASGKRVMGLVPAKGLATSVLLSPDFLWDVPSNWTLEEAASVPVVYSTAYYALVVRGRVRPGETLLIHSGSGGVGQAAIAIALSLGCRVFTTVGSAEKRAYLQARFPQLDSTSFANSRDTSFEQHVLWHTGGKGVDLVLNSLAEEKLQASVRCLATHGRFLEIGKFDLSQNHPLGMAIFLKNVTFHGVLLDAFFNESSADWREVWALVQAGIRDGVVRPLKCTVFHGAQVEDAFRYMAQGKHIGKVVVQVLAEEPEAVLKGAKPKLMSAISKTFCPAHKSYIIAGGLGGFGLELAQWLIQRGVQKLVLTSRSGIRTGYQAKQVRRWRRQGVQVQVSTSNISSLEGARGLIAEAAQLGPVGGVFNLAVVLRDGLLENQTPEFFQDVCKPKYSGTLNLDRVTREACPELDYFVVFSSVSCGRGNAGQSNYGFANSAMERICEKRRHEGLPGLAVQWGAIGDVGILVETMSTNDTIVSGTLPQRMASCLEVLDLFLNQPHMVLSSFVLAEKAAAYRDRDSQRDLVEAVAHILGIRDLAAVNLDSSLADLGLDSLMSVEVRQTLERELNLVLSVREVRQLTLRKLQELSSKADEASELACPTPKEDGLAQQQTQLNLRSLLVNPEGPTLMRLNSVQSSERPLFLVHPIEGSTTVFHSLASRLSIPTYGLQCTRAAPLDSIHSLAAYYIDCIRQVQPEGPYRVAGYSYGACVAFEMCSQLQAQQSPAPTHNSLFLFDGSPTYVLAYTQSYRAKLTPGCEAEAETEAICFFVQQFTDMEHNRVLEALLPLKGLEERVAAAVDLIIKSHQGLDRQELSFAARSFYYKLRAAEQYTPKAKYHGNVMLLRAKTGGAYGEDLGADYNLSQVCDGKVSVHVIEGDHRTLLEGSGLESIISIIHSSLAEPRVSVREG
IC50 (FASN enzyme),IC50 (PC3 cells),SMILES
< 0.5 µM,< 0.5 µM,Cn1c(-c2ccc(C(=O)N3CCN(C(=O)C4(O)CC4)CC3)cc2)cc2ccccc21 [1-[(4-{[4-(1-methyl-1H-indol-2-yl)phenyl]carbonyl}piperazin-1-yl)carbonyl]cyclopropan-1-ol]
< 0.5 µM,< 0.5 µM,Cn1ccc2cc(-c3ccc(C(=O)N4CCN(C(=O)C5(O)CC5)CC4)c(C(F)(F)F)c3)ccc21 [1-[(4-{[4-(1-methyl-1H-indol-5-yl)-2-(trifluoromethyl)phenyl]carbonyl}piperazin-1-yl)carbonyl]cyclopropan-1-ol]
< 0.5 µM,< 0.5 µM,"O=C(c1ccc(-c2cccc3[nH]cnc23)cc1)N1CCN(C(=O)C2(O)CC2)CC1 [1-[(4-{[4-(1H-1,3-benzodiazol-4-yl)phenyl]carbonyl}piperazin-1-yl)carbonyl]cyclopropan-1-ol]"
< 0.5 µM,< 0.5 µM,"O=C(c1ccc(-c2ccc3[nH]cnc3c2)cc1)N1CCN(C(=O)C2(O)CC2)CC1 [1-[(4-{[4-(1H-1,3-benzodiazol-5-yl)phenyl]carbonyl}piperazin-1-yl)carbonyl]cyclopropan-1-ol]"
< 0.5 µM,< 0.5 µM,O=C(c1ccc(-c2n[nH]c3ccccc23)cc1)N1CCN(C(=O)C2(O)CC2)CC1 [1-[(4-{[4-(1H-indazol-3-yl)phenyl]carbonyl}piperazin-1-yl)carbonyl]cyclopropan-1-ol]
< 0.5 µM,< 0.5 µM,O=C(c1ccc(-c2cccc3[nH]ccc23)cc1)N1CCN(C(=O)C2(O)CC2)CC1 [1-[(4-{[4-(1H-indol-4-yl)phenyl]carbonyl}piperazin-1-yl)carbonyl]cyclopropan-1-ol]
< 0.5 µM,< 0.5 µM,O=C(c1ccc(-c2ccc3[nH]ccc3c2)cc1)N1CCN(C(=O)C2(O)CC2)CC1 [1-[(4-{[4-(1H-indol-5-yl)phenyl]carbonyl}piperazin-1-yl)carbonyl]cyclopropan-1-ol]
< 0.5 µM,< 0.5 µM,"O=C(c1ccc(-c2ccc3nsnc3c2)cc1)N1CCN(C(=O)C2(O)CC2)CC1 [1-[(4-{[4-(2,1,3-benzothiadiazol-5-yl)phenyl]carbonyl}piperazin-1-yl)carbonyl]cyclopropan-1-ol]"

# The remaining lines, values behind:
SMILES,IC50 (FASN enzyme),IC50 (PC3 cells)
"O=C(c1ccc(-c2ccc3ncsc3c2)cc1)N1CCN(C(=O)C2(O)CC2)CC1 [1-[(4-{[4-(1,3-benzothiazol-6-yl)phenyl]carbonyl}piperazin-1-yl)carbonyl]cyclopropan-1-ol]",< 0.5 µM,< 0.5 µM
"O=C(c1ccc(-c2nc3ccccc3o2)cc1)N1CCN(C(=O)C2(O)CC2)CC1 [1-[(4-{[4-(1,3-benzoxazol-2-yl)phenyl]carbonyl}piperazin-1-yl)carbonyl]cyclopropan-1-ol]",< 0.5 µM,< 0.5 µM
"O=C(c1ccc(-c2ccc3ocnc3c2)cc1)N1CCN(C(=O)C2(O)CC2)CC1 [1-[(4-{[4-(1,3-benzoxazol-5-yl)phenyl]carbonyl}piperazin-1-yl)carbonyl]cyclopropan-1-ol]",< 0.5 µM,< 0.5 µM
"Cc1nn(C)c2ccc(-c3ccc(C(=O)N4CCN(C(=O)C5(O)CC5)CC4)cc3)cc12 [1-[(4-{[4-(1,3-dimethyl-1H-indazol-5-yl)phenyl]carbonyl}piperazin-1-yl)carbonyl]cyclopropan-1-ol]",< 0.5 µM,< 0.5 µM
O=C(c1ccc(-c2ccc3occc3c2)cc1)N1CCN(C(=O)C2(O)CC2)CC1 [1-[(4-{[4-(1-benzofuran-5-yl)phenyl]carbonyl}piperazin-1-yl)carbonyl]cyclopropan-1-ol],< 0.5 µM,< 0.5 µM
"Cn1cnc2cc(-c3ccc(C(=O)N4CCN(C(=O)C5(O)CC5)CC4)cc3)ccc21 [1-[(4-{[4-(1-methyl-1H-1,3-benzodiazol-5-yl)phenyl]carbonyl}piperazin-1-yl)carbonyl]cyclopropan-1-ol]",< 0.5 µM,< 0.5 µM
Cn1ncc2ccc(-c3ccc(C(=O)N4CCN(C(=O)C5(O)CC5)CC4)cc3)cc21 [1-[(4-{[4-(1-methyl-1H-indazol-6-yl)phenyl]carbonyl}piperazin-1-yl)carbonyl]cyclopropan-1-ol],< 0.5 µM,< 0.5 µM
